Experimental data taken from patent publication US6949553B2, “Aliphatic compounds, their synthesis method, and utilization of the same” (Maruha Corporation, priority 2001, dated 2005).

Key:
[1] = system: human platelets; assay: Human in vitro platelet aggregation; assay type: cell-based; details: inducer Serotonin + ADP, (0.25˜1) μM + (0.05˜0.25) μM, read-out: 50% inhibition point, IC50, against human in vitro platelet aggregation
[2] = system: platelets; assay: Ex vivo platelet aggregation after oral administration; assay type: in vivo, rat; details: 10, 1 or 0.1 mg/kg oral single dose, rats, blood 2 hours after administration, collagen 2 to 4 μg/ml
Experimental: Compound 2 in a dose of 10, 1 or 0.1 mg/kg was orally administered, as a single dose, to rats with the use of a probe needle. A solvent (physiological saline) was administered as a control.
The blood was withdrawn 2 hours after administration, and platelets were prepared from the blood. Platelet aggregation was induced by 2 to 4 μg/ml of collagen using the platelets. The preparation of platelets and the measurement of the aggregation rate were performed in the same manner as in Test Example 1.

[3] = system: neutrophils and vascular endothelial cells; assay: Pseudo-blood vessel in vitro inflammation model (TNFα, neutrophil migration through endothelial cell layer); assay type: cell-based, bovine; details: 30, 3 or 0.3 μM, TNFα 50 ng/ml
Experimental: A layer of bovine endothelial cells was adhered to the bottom surface of the membrane, and cultured for 80 minutes at 37° C. in 5% CO2. Then, a suspension of fluorescence-labeled neutrophils was added to the upper chamber of the transwell. Simultaneously, TNFα was suspended in the cell suspension in the upper chamber to an end concentration of 50, 25 or 17 ng/ml.
That is, in the above model, the phenomena that neutrophils pass from the upper chamber through the vascular endothelial cell layer into the lower chamber, and neutrophils adhere to the endothelial cell layer mimic a state where in response to TNFα within the blood vessel, neutrophils migrate from within the blood vessel to the site of inflammation.
In the same manner as described above, the number of neutrophils passing from the upper chamber through the vascular endothelial cell layer into the lower chamber, and the number of neutrophils adhering to the endothelial cell layer were measured. Based on these numbers, the neutrophil migration rate (%) was calculated. The neutrophil migration rate was expressed as the relative value (%) of the number of the migrating neutrophils in the drug treatment group with respect to the number of the migrating neutrophils in the negative control group (physiological saline).

[4] = system: platelets; assay: In vitro platelet aggregation by various inducers, guinea pig platelets; assay type: cell-based; details: Cavia porcellus
From the text: Next, the suppression of platelet aggregation by the compounds of the present invention was studied in the same manner as described above with the use of not only collagen, but also arachidonic acid, ADP, thrombin, serotonin, epinephrine and U46619 (pseudo-thromboxane A2 substance) as inducers.
As platelets, platelets prepared from rats and guinea pigs as well as rabbits were also used.
Collagen and ADP were purchased from MCM, and used in accordance with the method of preparation described in the manuals attached to the purchased products. Serotonin, epinephrine and thrombin were purchased from Sigma, and used as solutions in physiological saline for injection (Otsuka Pharmaceutical Factory). Arachidonic acid was purchased from Cayman, and dispersed in physiological saline for injection (Otsuka Pharmaceutical Factory) with the use of an immersion type ultrasonic oscillator (US150, NIPPON SEIKI, tip end diameter ca. 3.5 mm). U46619 (pseudo-thromboxane substance) was purchased from FUNAKOSHI, and dissolved in physiological saline for injection (Otsuka Pharmaceutical Factory) when used.
Collagen (0.1 to 1 μg/ml), arachidonic acid (1 mM), ADP (1 μM), thrombin (1 U/ml), serotonin (100 μM), epinephrine (100 to 200 μM), and U46619 (3 μM) were used.
Indomethacin was used as a positive control for measuring the suppression of platelet aggregation induced by collagen.

[5] = system: platelets; assay: Collagen-induced in vitro platelet aggregation (rabbit PRP, transmittance); assay type: cell-based; details: Oryctolagus cuniculus, Platelet, read-out: 50% Inhibition Point for Platelet Aggregation, IC50
Experimental: Collagen-induced in vitro Platelet Aggregation
It was studied whether the compounds of the present invention would inhibit platelet aggregation induced by collagen.
These compounds were each diluted with physiological saline to end concentrations of 1×10^−7M, 3×10^−7M, 1×10^−6M, 3×10^−6M, 1×10^−5M, 3×10^−5M and 1×10^−4M.
Indomethacin was used as a positive control. Indomethacin was dissolved in methanol, and then diluted with physiological saline to end concentrations of 1×10^−6M, 3×10^−6M and 1×10^−5M.
Physiological saline was used as a negative control.
The tube was centrifuged at 900 rpm for 10 minutes at room temperature to separate the supernatant (PRP, platelet rich plasma fraction). The residue was further centrifuged for 15 minutes at 2,500 rpm to obtain the supernatant (PPP, platelet poor plasma fraction).
PPP (platelet poor plasma fraction) was placed in a cuvette, and the cuvette was mounted in a 37° C. incubator for PPP of an aggregometer (Hematracer 240 12ch, manufactured by MCM). Then, 200 μl of PRP (platelet rich plasma fraction) was added into a cuvette, and the cuvette was mounted in a reactor for PRP. With stirring by a magnetic stirrer, the transmittance of PPP was corrected to T650 nm=100%, and the transmittance of PRP was corrected to T650 nm=0%, by automatic adjustment for 30 seconds.
The study substance (20 μl) at a predetermined concentration was added into the cuvette and, 30 seconds later, 20 μl (end concentration 0.2 μg/ml) of collagen (produced by MCM) was added. Subsequent changes in the transmittance were recorded for 5 minutes. When the platelets are aggregated, the transmittance increases. When aggregation peaked, the transmittance T at maximum aggregation was compared with the transmittance T0 of the negative control, and the aggregation inhibition rate was expressed as percentage using the following equation: Aggregation inhibition rate=(1−T/T0)×100
From an aggregation inhibition curve obtained, a regression equation was derived by approximation of the linear type.

[6] = system: mice; assay: Collagen-induced mouse sudden death model; assay type: in vivo; details: 30 μg/kg intravenous 1 hour before 37.5 mg/kg collagen; survival one hour later
Experimental: As a preliminary study of the effect of the compounds of the present invention on an in vivo pathophysiological model, it was investigated whether the compound of the present invention would suppress collagen-induced mouse sudden death. In this model, pulmonary capillaries are obstructed by a large amount of collagen, and a sudden death is caused by oxygen deficiency.
One hour after a solvent (physiological saline) or 30 μg/kg of Compound 2 was intravenously administered to mice, 37.5 mg/kg of collagen was administered to the caudal vein. One hour later, the survival rate was compared between the groups.

[7] = system: rat middle cerebral artery obstruction; assay: Photosensitization-induced rat middle cerebral artery obstruction model; assay type: in vivo; details: 1 mg/kg intravenous after laser irradiation, evaluated 24 hours after
Experimental: A photosensitization-induced rat middle cerebral artery obstruction model, widely used as a cerebral infarction acute phase/chronic phase model, was used to investigate the effect of the compounds of the present invention on an in vivo circulatory disorder pathophysiological model.
After rats were intravenously injected with a rose bengal dye (20 mg/kg), the middle cerebral artery was irradiated with green laser light (wavelength 540 nm) for 10 minutes to induce arterial infarction due to active oxygen species. After completion of irradiation with laser light, Compound 2 was intravenously administered.
A solvent (physiological saline) was intravenously administered as a control.
The progress of cerebral infarction was observed 24 hours after laser light irradiation. A transverse section (1 mm in thickness) of the brain exenterated was prepared, and soaked in triphenyltetrazolium to stain living tissue red. An infarct was white, and was clearly distinguished from the living tissue. Thus, the area of the infarct was measured, and the infarct rate (the proportion of the area of the infarct to the transverse section of the brain) was calculated for use in evaluation.

## CC/C=C\C/C=C\C/C=C\C/C=C\C/C=C\C/C=C\CCC(=O)NCCC1CCCN1C (racemic) [Compound 2, (4Z,7Z,10Z,13Z,16Z,19Z)-N-[2-(1-methylpyrrolidin-2-yl)ethyl]docosahexaenoamide]
[1]
  IC50: 3 µM
[2]
  ex vivo platelet aggregation after oral administration (in words): potently suppressed
[3]
  neutrophil passage through vascular endothelial cell layer (in words): suppressed neutrophil passage dose-dependently
[4]; read-out: 50% aggregation inhibition point, collagen-induced aggregation, guinea pig platelets
  IC50: ~9 µM
[4]; read-out: 50% inhibition point, IC50, for in vitro platelet aggregation, inducer ADP (1 μM), guinea pig platelets
  IC50: 65 ± 19 µM
[4]; read-out: 50% inhibition point, IC50, for in vitro platelet aggregation, inducer collagen (0.1 to 1 μg/ml), guinea pig platelets
  IC50: 9 ± 6 µM
[4]; read-out: 50% inhibition point, IC50, for in vitro platelet aggregation, inducer thrombin (1 U/ml), guinea pig platelets
  IC50: > 100 µM
[5]
  IC50: 1.5 µM
[6]
  Survival rate: 7/10
[7]
  cerebral infarction, infarct rate (in words): ameliorate cerebral infarction
